Results published in patent publication US9056874B2, “Complement pathway modulators and uses thereof” (NOVARTIS AG, priority 2012, dated 2015).

These compounds were tested against factor B (Homo sapiens, UniProt P00751) (assay: factor B inhibition assay of Biological Example 1). Settings: IC50 (nM), assay of Biological Example 1 (Table 1).
Format: biochemical
Design: CVF-Bb complex prepared from purified cobra venom factor (1 μM), recombinant human complement factor B; made in house; host or cells: drosophila cells (factor B); E. coli (factor D used to form the complex)

factor B, sequence (P00751 260-764 limits assumed): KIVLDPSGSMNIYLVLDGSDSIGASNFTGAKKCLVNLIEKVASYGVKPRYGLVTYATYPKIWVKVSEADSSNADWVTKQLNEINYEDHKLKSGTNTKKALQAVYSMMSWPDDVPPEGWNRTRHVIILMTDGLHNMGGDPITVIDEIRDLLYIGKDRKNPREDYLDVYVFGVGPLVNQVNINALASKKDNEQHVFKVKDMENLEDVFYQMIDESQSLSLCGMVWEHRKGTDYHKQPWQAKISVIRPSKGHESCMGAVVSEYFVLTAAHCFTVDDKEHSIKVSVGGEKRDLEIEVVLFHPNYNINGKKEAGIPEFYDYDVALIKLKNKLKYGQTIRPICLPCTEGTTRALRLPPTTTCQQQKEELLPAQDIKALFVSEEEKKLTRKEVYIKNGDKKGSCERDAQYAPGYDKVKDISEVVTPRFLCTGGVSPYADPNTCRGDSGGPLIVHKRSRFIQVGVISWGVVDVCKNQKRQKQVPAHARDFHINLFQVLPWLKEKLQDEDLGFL
factor B, sequence (Q91132 23-649 partner limits assumed): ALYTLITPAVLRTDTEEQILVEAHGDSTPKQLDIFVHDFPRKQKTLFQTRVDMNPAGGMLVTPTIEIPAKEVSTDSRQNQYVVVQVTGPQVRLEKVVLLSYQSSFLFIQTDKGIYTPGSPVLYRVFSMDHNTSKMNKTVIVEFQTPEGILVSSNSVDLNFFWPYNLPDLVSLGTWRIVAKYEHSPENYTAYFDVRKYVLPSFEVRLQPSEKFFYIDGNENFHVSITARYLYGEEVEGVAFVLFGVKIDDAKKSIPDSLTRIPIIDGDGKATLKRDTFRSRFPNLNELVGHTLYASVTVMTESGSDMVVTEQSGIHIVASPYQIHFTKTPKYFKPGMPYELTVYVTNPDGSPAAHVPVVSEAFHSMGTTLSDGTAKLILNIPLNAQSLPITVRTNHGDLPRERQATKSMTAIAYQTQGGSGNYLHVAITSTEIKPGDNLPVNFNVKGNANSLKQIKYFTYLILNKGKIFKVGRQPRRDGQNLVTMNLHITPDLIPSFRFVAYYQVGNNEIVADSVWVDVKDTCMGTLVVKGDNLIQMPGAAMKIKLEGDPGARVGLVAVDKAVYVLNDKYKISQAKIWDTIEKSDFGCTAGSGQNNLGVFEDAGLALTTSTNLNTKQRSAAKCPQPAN
factor B, sequence (Q91132 733-984 partner limits assumed): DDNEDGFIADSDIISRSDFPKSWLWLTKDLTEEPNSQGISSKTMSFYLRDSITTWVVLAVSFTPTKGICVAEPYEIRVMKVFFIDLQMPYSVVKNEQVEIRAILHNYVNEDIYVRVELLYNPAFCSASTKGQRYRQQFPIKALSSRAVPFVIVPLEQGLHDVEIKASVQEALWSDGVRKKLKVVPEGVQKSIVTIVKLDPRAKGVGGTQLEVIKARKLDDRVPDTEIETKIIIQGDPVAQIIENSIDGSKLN
factor B, sequence (Q91132 1264-1642 partner limits assumed): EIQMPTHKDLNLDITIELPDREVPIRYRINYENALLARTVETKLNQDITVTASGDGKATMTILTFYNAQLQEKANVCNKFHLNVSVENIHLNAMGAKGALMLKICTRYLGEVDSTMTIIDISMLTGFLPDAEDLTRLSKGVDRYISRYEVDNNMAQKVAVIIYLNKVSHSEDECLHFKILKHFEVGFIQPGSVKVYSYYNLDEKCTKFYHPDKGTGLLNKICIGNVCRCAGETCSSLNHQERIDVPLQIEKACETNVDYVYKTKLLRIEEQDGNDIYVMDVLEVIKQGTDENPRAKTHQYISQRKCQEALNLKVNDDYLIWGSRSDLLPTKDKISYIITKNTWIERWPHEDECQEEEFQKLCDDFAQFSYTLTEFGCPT

Row | SMILES | IC50
1 | COC(C)(c1nc2cc(C#N)ccc2[nH]1)c1c(CC(C)C)cc(C)c2[nH]ccc12 (single isomer, unassigned; (+)) [84-E b) (+), (+)-2-(1-(5-isobutyl-7-methyl-1H-indol-4-yl)-1-methoxyethyl)-1H-benzo[d]imidazole-5-carbonitrile] | 1200 nM
2 | COC(c1nc2cc(C#N)ccc2[nH]1)c1c(CC(C)C)cc(C)c2[nH]ccc12 (single isomer, unassigned; (-)) [71 b) (−), (−)-2-((5-isobutyl-7-methyl-1H-indol-4-yl)(methoxy)methyl)-1H-benzo[d]imidazole-5-carbonitrile] | 4590 nM
3 | Cc1cc(C)c2[nH]cc3c2c1C(O)(c1nc2cc(C#N)ccc2[nH]1)CC3 (single isomer, unassigned) [93-F b) (tr = 10.2 min), (−) or (+)-2-(5-hydroxy-6,8-dimethyl-1,3,4,5-tetrahydrobenzo[cd]indol-5-yl)-1H-benzo[d]imidazole-5-carbonitrile] | 950 nM
4 | CCc1cc(C)c2[nH]cc(Cl)c2c1C(O)c1nc2cc(C#N)ccc2[nH]1 (racemic) [Example 87, (±)-2-((3-Chloro-5-ethyl-7-methyl-1H-indol-4-yl)(hydroxy)methyl)-1H-benzo[d]imidazole-5-carbonitrile] | 380 nM
5 | [2H]C([2H])([2H])OC(C)(c1nc2cc(C#N)ccc2[nH]1)c1c(OC)cc(C)c2[nH]ccc12 (single isomer, unassigned; (-)) [27-F b) (−), (−)-2-(1-(^2H3)methoxy-1-(5-methoxy-7-methyl-1H-indol-4-yl)ethyl)-1H-benzo[d]imidazole-5-carbonitrile] | 9 nM
6 | Cc1cc(C)c2[nH]ccc2c1C(CO)c1nc2cc(C#N)ccc2[nH]1 (racemic) [Example 108-E, (±)-2-(1-(5,7-Dimethyl-1H-indol-4-yl)-2-hydroxyethyl)-1H-benzo[d]imidazole-5-carbonitrile] | 80 nM
7 | Cc1cc(C)c2[nH]cc(-c3ccccc3)c2c1C(O)c1nc2cc(C#N)ccc2[nH]1 (single isomer, unassigned) [118-C b) (tr = 4.6 min), (+)- or (−)-2-((5,7-dimethyl-3-phenyl-1H-indol-4-yl)(hydroxy)methyl)-1H-benzo[d]imidazole-5-carbonitrile] | 30 nM
8 | CCCc1cc(C)c2[nH]ccc2c1C(C)(O)c1nc2cc(C#N)ccc2[nH]1 (racemic) [79-B a) 2nd compound, (±)-2-(1-hydroxy-1-(7-methyl-5-propyl-1H-indol-4-yl)ethyl)-1H-benzo[d]imidazole-5-carbonitrile] | 150 nM
9 | Cc1cc(C2CC2)c(C(O)(c2nc3cc(C#N)ccc3[nH]2)C(F)(F)F)c2cc[nH]c12 (single isomer, unassigned; (+)) [80-E b) (+), (+)-2-(1-(5-cyclopropyl-7-methyl-1H-indol-4-yl)-2,2,2-trifluoro-1-hydroxyethyl)-1H-benzo[d]imidazole-5-carbonitrile] | 180 nM
10 | [2H]C([2H])([2H])C(OC)(c1nc2cc(C#N)ccc2[nH]1)c1c(OC)cc(C)c2[nH]ccc12 (single isomer, unassigned; (-)) [27-E b) (−), (−)-2-((^2H3)methyl(methoxy)(5-methoxy-7-methyl-1H-indol-4-yl)methyl)-1H-benzo[d]imidazole-5-carbonitrile] | 4 nM
11 | COc1cc(C)c2[nH]ccc2c1C(O)c1cc2ccc(C#N)cc2o1 (racemic) [Example 133-B, (±)-2-(hydroxy(5-methoxy-7-methyl-1H-indol-4-yl)methyl)benzofuran-6-carbonitrile] | 100 nM
12 | COc1cc(C)c2[nH]ccc2c1C(OC)c1nc2cc(C#N)ccc2[nH]1 (racemic) [30-B b) (−), (−)-2-(methoxy(5-methoxy-7-methyl-1H-indol-4-yl)methyl)-1H-benzo[d]imidazole-5-carbonitrile] | 160 nM
13 | COc1cc(C)c2[nH]ccc2c1C(N)(c1nc2cc(C#N)ccc2o1)C(F)(F)F (racemic) [Example 130-B, (±)-2-(1-Amino-2,2,2-trifluoro-1-(5-methoxy-7-methyl-1H-indol-4-yl)ethyl)benzo[d]oxazole-5-carbonitrile] | 20 nM
14 | COc1cc(C)c2[nH]ccc2c1C(C)(O)c1nc2cc(C#N)ccc2o1 (racemic) [126-C a), (±)-2-(1-hydroxy-1-(5-methoxy-7-methyl-1H-indol-4-yl)ethyl)benzo[d]oxazole-5-carbonitrile] | 8 nM
15 | COC(=O)COC(c1nc2cc(C#N)ccc2[nH]1)(c1c(OC)cc(C)c2[nH]ccc12)C(F)(F)F (racemic) [35-B a), (±)-Methyl 2-(1-(5-cyano-1H-benzo[d]imidazol-2-yl)-2,2,2-trifluoro-1-(5-methoxy-7-methyl-1H-indol-4-yl)ethoxy)acetate] | 70 nM
16 | CCc1cc(C)c2[nH]ccc2c1C(C)(O)c1nc2cc(C#N)ccc2[nH]1 (single isomer, unassigned; (+)) [77-C b) (+), (+)-2-(1-(5-ethyl-7-methyl-1H-indol-4-yl)-1-hydroxyethyl)-1H-benzo[d]imidazole-5-carbonitrile] | 40 nM
17 | COc1cc(C)c2[nH]ccc2c1C(O)c1nc2ccc(C#N)cc2s1 (racemic) [Example 132-B, (±)-2-(hydroxy(5-methoxy-7-methyl-1H-indol-4-yl)methyl)benzo[d]thiazole-6-carbonitrile] | 70 nM

Row | SMILES | IC50
18 | CNC(C)(c1nc2cc(C#N)ccc2[nH]1)c1c(C)cc(C)c2[nH]ccc12 (racemic) [Example 103-E, (±)-2-(1-(5,7-Dimethyl-1H-indol-4-yl)-1-(methylamino)ethyl)-1H-benzo[d]imidazole-5-carbonitrile] | 50 nM
19 | [2H]C([2H])([2H])Oc1cc(Cl)c2[nH]ccc2c1C(O)c1nc2cc(C#N)ccc2[nH]1 (stereo not drawn) [Example 24-E] | 1110 nM
20 | CCC(O)(c1nc2cc(C#N)ccc2[nH]1)c1c(OC(C)C)cc(C)c2[nH]ccc12 (single isomer, unassigned; (-)) [26-F b) (−), (−)-2-(1-hydroxy-1-(5-isopropoxy-7-methyl-1H-indol-4-yl)propyl)-1H-benzo[d]imidazole-5-carbonitrile] | 380 nM
21 | Cc1cc(C)c2[nH]cc(-c3ccn[nH]3)c2c1C(O)c1nc2cc(C#N)ccc2[nH]1 (racemic) [Example 121-D, (±)-2-((5,7-Dimethyl-3-(1H-pyrazol-5-yl)-1H-indol-4-yl)(hydroxy)methyl)-1H-benzo[d]imidazole-5-carbonitrile] | 480 nM
22 | CCC(O)(c1nc2cc(C#N)ccc2[nH]1)c1c(C)cc(C)c2[nH]ccc12 (stereo not drawn) [Example 79-G] | 190 nM
23 | COC(C)(c1nc2cc(C#N)ccc2[nH]1)c1c(OC(F)F)cc(C)c2[nH]ccc12 (single isomer, unassigned; (-)) [8-B b) (−), (−)-2-(1-(5-(difluoromethoxy)-7-methyl-1H-indol-4-yl)-1-methoxyethyl)-1H-benzo[d]imidazole-5-carbonitrile] | 900 nM
24 | [2H]C([2H])([2H])Oc1cc(Cl)c2[nH]ccc2c1Cc1nc2cc(C#N)ccc2[nH]1 [Example 22, 2-((7-Chloro-5-(^2H3)methoxy-1H-indol-4-yl)methyl)-1H-benzo[d]imidazole-5-carbonitrile] | 1140 nM
25 | COc1cc(C)c2[nH]ccc2c1C(O)c1nc2cc(C#N)ccc2o1 (single isomer, unassigned; (+)) [125-B b) (+), (+)-2-(hydroxy(5-methoxy-7-methyl-1H-indol-4-yl)methyl)benzo[d]oxazole-5-carbonitrile] | 180 nM
26 | CCc1cc(C)c2[nH]ccc2c1C(N)c1nc2cc(C#N)ccc2[nH]1 (single isomer, unassigned; (-)) [96-C b) (−), (−)-2-(amino(5-ethyl-7-methyl-1H-indol-4-yl)methyl)-1H-benzo[d]imidazole-5-carbonitrile] | 70 nM
27 | Cc1cc(C)c2[nH]ccc2c1C(O)c1nc2cc(C#N)ccc2[nH]1 (single isomer, unassigned; (-)) [64-C b) (−), (−)-2-((5,7-dimethyl-1H-indol-4-yl)(hydroxy)methyl)benzo[d]imidazole-5-carbonitrile] | 60 nM
28 | Cc1cc(C)c2[nH]cc(-c3ccccc3)c2c1C(O)c1nc2cc(C#N)ccc2[nH]1 (single isomer, unassigned) [118-C b) (tr = 7.9 min), (−) or (+)-2-((5,7-dimethyl-3-phenyl-1H-indol-4-yl)(hydroxy)methyl)-1H-benzo[d]imidazole-5-carbonitrile] | 1750 nM
29 | COc1cc(C)c2[nH]ccc2c1C(N)c1nc2cc(C#N)ccc2[nH]1 (single isomer, unassigned) [39-C b) (tr = 30.6 min), (+) or (−)-2-(amino(5-methoxy-7-methyl-1H-indol-4-yl)methyl)-1H-benzo[d]imidazole-5-carbonitrile] | 190 nM
30 | COc1cc(C)c2[nH]ccc2c1C(C)(N)c1nc2cc(C#N)ccc2[nH]1 (single isomer, unassigned; (+)) [41-B b) (+), (+)-2-(1-amino-1-(5-methoxy-7-methyl-1H-indol-4-yl)ethyl)-1H-benzo[d]imidazole-5-carbonitrile] | 190 nM
31 | COc1cc(C)c2[nH]ccc2c1C(c1nc2cc(C#N)ccc2[nH]1)N(C)C (racemic) [Example 43-C, (±)-2-((Dimethylamino)(5-methoxy-7-methyl-1H-indol-4-yl)methyl)-1H-benzo[d]imidazole-5-carbonitrile] | 1180 nM
32 | CCOc1cc(C)c2[nH]ccc2c1C(CN)c1nc2cc(C#N)ccc2[nH]1 (racemic) [Example 44-C, (±)-2-(2-amino-1-(5-ethoxy-7-methyl-1H-indol-4-yl)ethyl)-1H-benzo[d]imidazole-5-carbonitrile] | 870 nM
33 | Cc1cc(C2CC2)c(C(C)(N)c2nc3cc(C#N)ccc3[nH]2)c2cc[nH]c12 (single isomer, unassigned; (-)) [102-D b) (−), (−)-2-(1-amino-1-(5-cyclopropyl-7-methyl-1H-indol-4-yl)ethyl)-1H-benzo[d]imidazole-5-carbonitrile] | 8 nM
